Literature values, collected in patent US20160331794A1, “COMPOSITION FOR USE IN THE TREATMENT OF PERSISTENT COUGH” (ABOCA S.P.A SOCIETÁ AGRICOLA, priority 2013, published 2016).

Columns and labels:
[1] = test system: cough; settings: Lee et al. 2000; cited from earlier work
[2] = test system: night cough in children; settings: Yoder et al. 2006; cited from earlier work

Row | SMILES | efficacy in the treatment of coughs versus placebo [1] | diminishing night cough in children versus placebo [2]
1 | COc1ccc2c(c1)[C@]13CCCC[C@@H]1[C@H](C2)N(C)CC3 [dextromethorphan] | only marginally better than the placebo | Neither dextromethorphan nor diphenhydramine have been found to be better than the placebo
2 | CN(C)CCOC(c1ccccc1)c1ccccc1 [diphenhydramine] |  | Neither dextromethorphan nor diphenhydramine have been found to be better than the placebo
